From patent publication US4117230A, “Hydantoin derivatives as therapeutic agents” (priority 1977, dated 1978)

How the values were obtained:
[1] = test system: sorbitol accumulation in the sciatic nerve of streptozotocinized (i.e., diabetic) rats; assay: inhibition of sorbitol accumulation in the sciatic nerve of acutely streptozotocinized (diabetic) rats; format: in vivo, rat; conditions: measured at 27 h, vs untreated
Description: (§1) The activity of the compounds of the present invention, as agents for the control of chronic diabetic complications, is determined by their ability to successfully pass one or more of the following standard biological and/or pharmacological tests, viz., (1) measuring their ability to inhibit the enzyme activity of isolated aldose reductase; (2) measuring their ability to reduce or inhibit sorbitol accumulation in the sciatic nerve of acutely sterptozotocinized (i.e., diabetic) rats; (3) measuring their ability to reverse already-elevated sorbitol levels in the sciatic nerve and lens of chronic streptozotocin-induced diabetic rats; (4) measuring their ability to prevent or inhibit galactitol formation in the lens of acutely galactosemic rats, and (5) measuring their ability to delay cataract formation and reduce the severity of lens opacities in chronic galactosemic rats.
The following spiro-hydantoin compounds of Preparation C and Examples I-V, VII-IX, XI-XVII, XIX-XXV, XXVII and XXX-XXXIII, respectively, were tested for their ability to reduce or inhibit sorbitol accumulation in the sciatic nerve of streptozotocinized (i.e., diabetic) rats by the procedure essentially described in U.S. Pat. No. 3,821,383. In the present study, the amount of sorbitol accumulation in the sciatic nerves was measured 27 hours after induction of diabetes. The compounds were administered orally at the dose levels indicated at 4, 8 nd 24 hours following the administration of streptozotocin. The results obtained in this manner are presented below in terms of percent inhibition (%) afforded by the test compound as compared to the case where no compound was administered (i.e., the untreated animal where sorbitol levels normally rise from approximately […]. tissue to as high as […]. tissue in the 27-hour test period): […]

aldose reductase = target: T1, aldose reductase (Bos taurus, UniProt P16116); assay: inhibition of aldose reductase enzyme activity (procedure of S. Hayman et al., modified by K. Sestanj et al.); format: biochemical, calf; conditions: calf lens enzyme, read-out: Percent inhibition of aldose reductase enzyme activity; for inhibition at 100 µM: 10^-4 M; for inhibition at 10 µM: 10^-5 M; for inhibition at 1 µM: 10^-6 M; for inhibition at 0.1 µM: 10^-7 M
T1 construct: partially purified aldose reductose enzyme obtained from calf lens; from tissue; host or cells: calf lens
Description: as §1
Hayman et al., as described in the Journal of Biological Chemistry, Vol. 240, p. […] In every case, the substrate employed ws partially purified aldose reductose enzyme obtained from calf lens.

[2] = 5.0 mg./kg. orally at 4, 8 and 24 h after streptozotocin
[3] = 10 mg./kg. orally at 4, 8 and 24 h after streptozotocin
[4] = 2.5 mg./kg. orally at 4, 8 and 24 h after streptozotocin
[5] = 1.5 mg./kg. orally at 4, 8 and 24 h after streptozotocin

COc1ccc2c(c1)C1(CC2)NC(=O)NC1=O (centres unmarked) [Ex. II, 6'-methoxy-spiro-[imidazolidine-4,1'-indan]-2,5-dione]
Percent inhibition of sorbitol accumulation in the sciatic nerve [1, 2]: 6%
Percent inhibition of sorbitol accumulation in the sciatic nerve [1, 3]: 54%
inhibition at 100 µM (aldose reductase): 97%
inhibition at 10 µM (aldose reductase): 61%
inhibition at 1 µM (aldose reductase): 17%
inhibition at 0.1 µM (aldose reductase): 1%

O=C1NC(=O)C2(CCc3ccc(F)cc32)N1 (centres unmarked) [Ex. III, 6'-fluoro-spiro-[imidazolidine-4,1'-indan]-2,5-dione]
Percent inhibition of sorbitol accumulation in the sciatic nerve [1, 2]: 45%
inhibition at 100 µM (aldose reductase): 74%
inhibition at 10 µM (aldose reductase): 12%
inhibition at 1 µM (aldose reductase): 22%
inhibition at 0.1 µM (aldose reductase): -1%

COc1cc2c(cc1OC)C1(CC2)NC(=O)NC1=O (centres unmarked) [Ex. IV, 5',6'-dimethoxy-spiro-[imidazolidine-4,1'-indan]-2,5-dione]
Percent inhibition of sorbitol accumulation in the sciatic nerve [1, 2]: 33%
Percent inhibition of sorbitol accumulation in the sciatic nerve [1, 3]: 49%
inhibition at 100 µM (aldose reductase): 90%
inhibition at 10 µM (aldose reductase): 81%
inhibition at 1 µM (aldose reductase): 35%
inhibition at 0.1 µM (aldose reductase): 9%

O=C1NC(=O)C2(CCSc3ccc(Cl)cc32)N1 (centres unmarked) [Ex. IX, 6'-chloro-spiro-[imidazolidine-4,4'-thiochroman]-2,5-dione]
Percent inhibition of sorbitol accumulation in the sciatic nerve [1, 4]: 58%
inhibition at 100 µM (aldose reductase): 79%
inhibition at 10 µM (aldose reductase): 87%
inhibition at 1 µM (aldose reductase): 71%
inhibition at 0.1 µM (aldose reductase): 30%

O=C1NC(=O)C2(CCc3cc4c(cc32)OCO4)N1 (centres unmarked) [Ex. V, 5',6'-methylenedioxy-spiro-[imidazolidine-4,1'-indan]-2,5-dione]
Percent inhibition of sorbitol accumulation in the sciatic nerve [1, 2]: 9%
inhibition at 100 µM (aldose reductase): 92%
inhibition at 10 µM (aldose reductase): 67%
inhibition at 1 µM (aldose reductase): 25%
inhibition at 0.1 µM (aldose reductase): 3%

COc1ccc2c(c1)CCC21NC(=O)NC1=O (centres unmarked) [Ex. VI, 5'-methoxy-spiro-[imidazolidine-4,1'-indan]-2,5-dione]
inhibition at 100 µM (aldose reductase): 82%
inhibition at 10 µM (aldose reductase): 60%
inhibition at 1 µM (aldose reductase): 13%
inhibition at 0.1 µM (aldose reductase): -10%

O=C1NC(=O)C2(CCSc3ccccc32)N1 (centres unmarked) [Ex. VII, spiro-[imidazolidine-4,4'-thiochroman]-2,5-dione]
Percent inhibition of sorbitol accumulation in the sciatic nerve [1, 2]: 39%
Percent inhibition of sorbitol accumulation in the sciatic nerve [1, 3]: 65%
inhibition at 100 µM (aldose reductase): 92%
inhibition at 10 µM (aldose reductase): 64%
inhibition at 1 µM (aldose reductase): 10%
inhibition at 0.1 µM (aldose reductase): -5%

COc1ccc2c(c1)C1(CCS2)NC(=O)NC1=O (centres unmarked) [Ex. VIII, 6'-methoxy-spiro-[imidazolidine-4,4'-thiochroman]-2,5-dione]
Percent inhibition of sorbitol accumulation in the sciatic nerve [1, 2]: 26%
inhibition at 100 µM (aldose reductase): 76%
inhibition at 10 µM (aldose reductase): 60%
inhibition at 1 µM (aldose reductase): 18%
inhibition at 0.1 µM (aldose reductase): 7%

O=C1NC(=O)C2(CCSc3ccc(Br)cc32)N1 (centres unmarked) [Ex. X, 6-bromo-spiro-[imidazolidine-4,4'-thiochroman]-2,5-dione]
inhibition at 100 µM (aldose reductase): 32%

O=C1NC(=O)C2(CCSc3ccc(F)cc32)N1 (centres unmarked) [Ex. XII, 6'-fluoro-spiro-[imidazolidine-4,4'-thiochroman]-2,5-dione]
Percent inhibition of sorbitol accumulation in the sciatic nerve ([1]; 0.75 mg./kg. orally at 4, 8 and 24 h after streptozotocin): 13%
Percent inhibition of sorbitol accumulation in the sciatic nerve [1, 5]: 45%
Percent inhibition of sorbitol accumulation in the sciatic nerve [1, 4]: 74%
inhibition at 100 µM (aldose reductase): 81%
inhibition at 10 µM (aldose reductase): 77%
inhibition at 1 µM (aldose reductase): 66%
inhibition at 0.1 µM (aldose reductase): 38%

O=C1NC(=O)C2(CCSc3c(Cl)cccc32)N1 (centres unmarked) [Ex. XIII, 8'-chloro-spiro-[imidazolidine-4,4'-thiochroman]-2,5-dione]
Percent inhibition of sorbitol accumulation in the sciatic nerve [1, 5]: 5%
inhibition at 100 µM (aldose reductase): 60%

O=C1NC(=O)C2(CCSc3cc(Cl)ccc32)N1 (centres unmarked) [Ex. XIV, 7'-chloro-spiro-[imidazolidine-4,4'-thiochroman]-2,5-dione]
Percent inhibition of sorbitol accumulation in the sciatic nerve [1, 5]: 26%
inhibition at 100 µM (aldose reductase): 70%

O=C1NC(=O)C2(CCc3ccc(O)cc32)N1 (centres unmarked) [Ex. XIX, 6'-hydroxy-spiro-[imidazolidine-4,1'indan]-2,5-dione]
Percent inhibition of sorbitol accumulation in the sciatic nerve [1, 3]: 15%
inhibition at 100 µM (aldose reductase): 93%
inhibition at 10 µM (aldose reductase): 31%
inhibition at 1 µM (aldose reductase): 11%
inhibition at 0.1 µM (aldose reductase): -30%
